Measured values reported in publication PMC4805166, “Synthetic Cyclolipopeptides Selective against Microbial, Plant and Animal Cell Targets by Incorporation of D-Amino Acids or Histidine” (PLoS ONE, 2016).
“And” between values parts separate entries of the source, which are not always exact repeats. Identical values can stand only once. Like-named read-outs stand apart in the source and are kept apart here. Where a SMILES comes first, the peptide text is derived from it. Side-chain parts run from the residue outwards. [ ]: non-standard residue; d: D form. The star is where a group is joined. Pentanoyl(4-Me) = CC(C)CCC(=O)*; Hexanoyl = CCCCCC(=O)*; Butyryl = CCCC(=O)*

Key:
[1] = test system: Pseudomonas syringae pv. syringae EPS94; format: cell-based; conditions: 48 h
Protocol: (§1) The following plant pathogenic bacterial strains were used: Erwinia amylovora PMV6076 (Institut National de la Recherche Agronomique, Angers, France), Pseudomonas syringae pv. syringae EPS94 (Institut de Tecnologia Agroalimentària, Universitat de Girona, Spain) and Xanthomonas axonopodis pv. vesicatoria 2133–2 (Instituto Valenciano de Investigaciones Agrarias, Valencia, Spain). All bacteria were stored in Luria Bertani (LB) broth supplemented with glycerol (20%) and maintained at -80°C. Bacteria were scrapped from LB agar after growing for 24–48 h at 25°C. The cell material was suspended in sterile water to obtain a suspension of 10^8 CFU mL^-1.
(§2) Lyophilized peptides were solubilized in sterile Milli-Q water to a final concentration of 1 mM and filter sterilized through a 0.22-μm pore filter. For minimum inhibitory concentration (MIC) assessment, dilutions of the compounds were made to obtain a stock concentration of […]. For antibacterial activity twenty microlitres of each dilution were mixed in a microtiter plate well with 20 μL of the corresponding suspension of the bacterial indicator, 160 μL of Trypticase Soy Broth (TSB) (BioMèrieux, France) to a total volume of 200 μL. For antifungal activity 20 μL of each stock solution were mixed in a microtiter plate well with 80 μL of the corresponding suspension of the fungal pathogen and 100 μL of double concentrated PDB to a total volume of 200 μL containing 0.003% w/v of choramphenicol.
(§3) Three replicates for each strain, compound and concentration were used. Microbial growth was determined by optical density measurement at 600 nm (Bioscreen C, Labsystem, Helsinki, Finland). For antibacterial activity microplates were incubated at 25°C with 20 sec shaking before hourly absorbance measurement for 48 h. For antifungal activity microplates were incubated at 20°C with 1 min shaking before absorbance measurement that were done every two hours during seven days. The experiment was repeated twice. The MIC was taken as the lowest compound concentration with no growth at the end of the experiment.

[2] = test system: Xanthomonas axonopodis pv. vesicatoria 2133–2; format: cell-based; conditions: TSB, 25°C, 48 h, OD 600 nm; tested at 3.1, 6.2, 12.5, 25, 50 μM; three replicates, experiment repeated twice; MIC = lowest concentration with no growth
Protocol: as §1, §2, §3

[3] = test system: Erwinia amylovora PMV6076; experiment: MIC, in vitro growth inhibition; format: cell-based; conditions: TSB, 25°C, 48 h, OD 600 nm; tested at 3.1, 6.2, 12.5, 25, 50 μM; three replicates, experiment repeated twice; MIC = lowest concentration with no growth
Protocol: as §1, §2, §3

[4] = test system: Fusarium oxysporum f. sp. lycopersici FOL 3 race 2; experiment: MIC, antifungal growth inhibition; format: cell-based
Protocol: (§4) Fusarium oxysporum f. sp. lycopersici FOL 3 race 2 (ATCC 201829, American Type Culture Collection) was used as fungal pathogen. The strain was cultured on potato dextrose agar (PDA) plates (Difco) and microconidia were obtained after growth at 25°C. The concentration of conidia was determined using a hemacytometer and adjusted to 10^4 conidia mL^-1.
as §2, §3

[5] = test system: E. amylovora, P. syringae pv. syringae, X. axonopodis pv. vesicatoria and F. oxysporum; format: cell-based; conditions: for MIC against three pathogens: three of the four pathogens tested
Protocol: as §1, §4, §2, §3

[6] = test system: erythrocyte suspensions of horse blood; conditions: horse erythrocytes 5% vol/vol, TRIS buffer pH 7.2, 1 h at 37°C, absorbance 540 nm, relative to melittin 100 μM, ± confidence interval (α = 0.05); for Hemolysis (%) 150 µM: 150 µM peptide; for Hemolysis (%) 250 µM: 250 µM peptide;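 on all read-outs here: Read-out is hemoglobin release into the supernatant, with a buffer-only blank subtracted as the 0% baseline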
[7] = PDB with 0.003% chloramphenicol, 20°C, seven days, OD 600 nm, tested at 3.1, 6.2, 12.5, 25, 50 μM, three replicates, repeated twice

Compound	MIC Pss [1] [µM]	MIC Xav [2]	MIC Ea [3] [µM]	MIC Fo [4] [µM]	MIC Fo [4, 7] [µM]	Antimicrobial activity, in words ([5]; authors' overall judgement over the pathogens tested)	Hemolysis (%) 150 µM [6] [%]	MIC against three pathogens [5] [µM]	Hemolysis (%) 250 µM [6] [%]	MIC Pss ([1]; TSB, 25°C, OD 600 nm, tested at 3.1, 6.2, 12.5, 25, 50 μM, three replicates, experiment repeated twice, MIC = lowest concentration with no growth) [µM]
CC(C)C[C@@H]1NC(=O)[C@H](CCCCN)NC(=O)[C@H](CCCCN)NC(=O)[C@H](CCC(N)=O)NC(=O)[C@H](CC(C)C)NC(=O)[C@H](CCCCN)NC(=O)[C@H](CCCCN)NC(=O)[C@H](Cc2ccccc2)NC(=O)[C@H](CCCCN)NC(=O)[C@H](CCCCN)NC1=O [BPC194] (cyclo(FKKLQKKLKK))	3.1 to 6.2	3.1 to 6.2 µM	6.2 to 12.5	< 3.1	<3.1	high antimicrobial activity	4 ± 1	–	–	–
CC(C)CCC(=O)NCCCC[C@@H]1NC(=O)[C@H](CCCCN)NC(=O)[C@H](CC(C)C)NC(=O)[C@H](CCCCN)NC(=O)[C@H](CCCCN)NC(=O)[C@H](CCC(N)=O)NC(=O)[C@H](CC(C)C)NC(=O)[C@H](CCCCN)NC(=O)[C@H](CCCCN)NC(=O)[C@H](Cc2ccccc2)NC1=O [BPC504, c(KKLKK(CO-isoC5H11)FKKLQ)] (cyclo(FKKLQKKLKK(Pentanoyl(4-Me))))	6.2 to 12.5	3.1 to 6.2 µM	12.5 to 25	–	3.1 to 6.2	–	89 ± 2	< 12.5	–	–
CCCCCC(=O)NCCCC[C@H]1NC(=O)[C@H](CCC(N)=O)NC(=O)[C@H](CC(C)C)NC(=O)[C@H](CCCCN)NC(=O)[C@H](CCCCN)NC(=O)[C@H](Cc2ccccc2)NC(=O)[C@H](CCCCN)NC(=O)[C@H](CCCCN)NC(=O)[C@H](CC(C)C)NC(=O)[C@H](CCCCN)NC1=O [BPC684] (cyclo(FKKLQ[dK](Hexanoyl)KLKK))	12.5 to 25	6.2 to 12.5 µM	25 to 50	–	6.2 to 12.5	–	8 ± 1	–	–	–
CCCC(=O)NCCCC[C@H]1NC(=O)[C@H](CCCCN)NC(=O)[C@H](CCC(N)=O)NC(=O)[C@H](CC(C)C)NC(=O)[C@H](CCCCN)NC(=O)[C@H](CCCCN)NC(=O)[C@H](Cc2ccccc2)NC(=O)[C@H](CCCCN)NC(=O)[C@H](CCCCN)NC(=O)[C@H](CC(C)C)NC1=O [BPC704] (cyclo(FKKLQK[dK](Butyryl)LKK))	6.2 to 12.5	6.2 to 12.5 µM	25 to 50	–	12.5 to 25	–	9 ± 1	–	16 ± 2	–
CCCC(=O)NCCCC[C@@H]1NC(=O)[C@H](CCC(N)=O)NC(=O)[C@H](CC(C)C)NC(=O)[C@H](CCCCN)NC(=O)[C@H](CCCCN)NC(=O)[C@H](Cc2ccccc2)NC(=O)[C@H](CCCCN)NC(=O)[C@H](CCCCN)NC(=O)[C@H](CC(C)C)NC(=O)[C@H](CCCCN)NC1=O [BPC710] (cyclo(FKKLQK(Butyryl)KLKK))	12.5 to 25	3.1 to 6.2 µM	25 to 50	–	<3.1	–	7 ± 1	–	–	–
CCCC(=O)NCCCC[C@@H]1NC(=O)[C@H](CCCCN)NC(=O)[C@H](CC(C)C)NC(=O)[C@H](CCCCN)NC(=O)[C@H](CCCCN)NC(=O)[C@H](CCC(N)=O)NC(=O)[C@H](CC(C)C)NC(=O)[C@H](CCCCN)NC(=O)[C@H](CCCCN)NC(=O)[C@@H](Cc2ccccc2)NC1=O [BPC712, c(KKLKK(CO-C3H7)fKKLQ)] (cyclo(KKLKK(Butyryl)[dF]KKLQ))	12.5 to 25	3.1 to 12.5 µM and 3.1 to 6.2 µM	25 to 50	3.1 to 6.2	3.1 to 6.2	–	30 ± 4	–	38 ± 7	–
CCCC(=O)NCCCC[C@@H]1NC(=O)[C@H](CCC(N)=O)NC(=O)[C@H](CC(C)C)NC(=O)[C@H](CCCCN)NC(=O)[C@H](CCCCN)NC(=O)[C@@H](Cc2ccccc2)NC(=O)[C@H](CCCCN)NC(=O)[C@H](CCCCN)NC(=O)[C@H](CC(C)C)NC(=O)[C@H](CCCCN)NC1=O [BPC716, c(K(CO-C3H7)KLKKfKKLQ)] (cyclo(K(Butyryl)KLKK[dF]KKLQ))	12.5 to 25	25 to 50 µM	25 to 50	–	3.1 to 6.2	–	2 ± 1	–	4 ± 0.5	–
CCCC(=O)NCCCC[C@@H]1NC(=O)[C@H](CCCCN)NC(=O)[C@H](CC(C)C)NC(=O)[C@H](CCCCN)NC(=O)[C@H](CCCCN)NC(=O)[C@H](CCC(N)=O)NC(=O)[C@H](CC(C)C)NC(=O)[C@H](CCCCN)NC(=O)[C@H](CCCCN)NC(=O)[C@H](Cc2c[nH]cn2)NC1=O [BPC718, c(KKLKK(CO-C3H7)HKKLQ)] (cyclo(HKKLQKKLKK(Butyryl)))	12.5 to 25	12.5 to 25 µM	>50	–	6.2 to 12.5	–	3 ± 1	–	4 ± 1	–
CCCC(=O)NCCCC[C@@H]1NC(=O)[C@H](CCCCN)NC(=O)[C@H](CCC(N)=O)NC(=O)[C@H](CC(C)C)NC(=O)[C@H](CCCCN)NC(=O)[C@H](CCCCN)NC(=O)[C@H](Cc2c[nH]cn2)NC(=O)[C@H](CCCCN)NC(=O)[C@H](CCCCN)NC(=O)[C@H](CC(C)C)NC1=O [BPC720] (cyclo(HKKLQKK(Butyryl)LKK))	12.5 to 25	12.5 to 25 µM	>50	–	<3.1	–	3 ± 1	–	4 ± 1	–
CCCC(=O)NCCCC[C@@H]1NC(=O)[C@H](CCC(N)=O)NC(=O)[C@H](CC(C)C)NC(=O)[C@H](CCCCN)NC(=O)[C@H](CCCCN)NC(=O)[C@H](Cc2c[nH]cn2)NC(=O)[C@H](CCCCN)NC(=O)[C@H](CCCCN)NC(=O)[C@H](CC(C)C)NC(=O)[C@H](CCCCN)NC1=O [BPC722] (cyclo(HKKLQK(Butyryl)KLKK))	>50	25 to 50 µM	>50	–	3.1 to 6.2	–	3 ± 0.2	–	3 ± 0.1	–
CCCC(=O)N[C@@H](CCCCN)C(=O)N[C@@H](CC(C)C)C(=O)NCCCC[C@H]1NC(=O)[C@H](CCCCN)NC(=O)[C@H](CC(C)C)NC(=O)[C@H](CCCCN)NC(=O)[C@H](CCCCN)NC(=O)[C@H](CCC(N)=O)NC(=O)[C@H](CC(C)C)NC(=O)[C@H](CCCCN)NC(=O)[C@H](CCCCN)NC(=O)[C@H](Cc2ccccc2)NC1=O [BPC724, c(KKLKk(LK-CO-C3H7)FKKLQ)] (cyclo(FKKLQKKLK[dK]([Leu-Lys-Butyryl])))	12.5 to 25	6.2 to 12.5 µM	25 to 50	–	<3.1	–	3 ± 2	–	3 ± 0.5	–
CCCC(=O)N[C@@H](CCCCN)C(=O)N[C@@H](CC(C)C)C(=O)NCCCC[C@@H]1NC(=O)[C@H](CCCCN)NC(=O)[C@H](CC(C)C)NC(=O)[C@H](CCCCN)NC(=O)[C@H](CCCCN)NC(=O)[C@H](CCC(N)=O)NC(=O)[C@H](CC(C)C)NC(=O)[C@H](CCCCN)NC(=O)[C@H](CCCCN)NC(=O)[C@@H](Cc2ccccc2)NC1=O [BPC726, c(KKLKK(LK-CO-C3H7)fKKLQ)] (cyclo(KKLKK([Leu-Lys-Butyryl])[dF]KKLQ))	12.5 to 25	6.2 to 12.5 µM	25 to 50	–	3.1 to 6.2	–	0 ± 1	–	4 ± 2	–
c(KKLKK(CO-C8H17)FKKLQ) [BPC594]	–	3.1 to 6.2 µM	25 to 50	–	6.2 to 12.5	–	–	< 12.5	–	6.2 to 12.5
